Measurements published in article PMC11822212, “High-throughput screening identifies Aurora kinase B as a critical therapeutic target for Merkel cell carcinoma” (Nature Communications, 2025).
Like-named read-outs stand apart in the source and are kept apart here.

Columns and labels:
[1] = test system: VN-MCC cell lines (MCC13, MCC26, UISO); assay: qHTS cell viability, VN-MCC cell lines as a group (mean AUC, VN.MCC.avg); type: cell-based, human
UISO cells (VN-MCC) = assay: qHTS cell viability (CellTiter-Glo, 72 h; primary and follow-up small molecule screen); type: cell-based, human
[2] = test system: VP-MCC cell lines (WAGA, MKL-1, MKL-2); assay: qHTS cell viability, VP-MCC cell lines as a group (mean AUC, VP.MCC.avg); type: cell-based, human
HEK293T cells = assay: qHTS cell viability (CellTiter-Glo, 72 h; primary screen), control cell line; type: cell-based, human
[3] = test system: six MCC cell lines and four control cell lines; assay: qHTS cell viability, all 10 cell lines screened; type: cell-based
NIH-3T3 cells = assay: qHTS cell viability (CellTiter-Glo, 72 h; primary screen), control cell line; type: cell-based, mouse
[4] = test system: MCC cell lines (WAGA, MKL-1, MKL-2, MCC13, MCC26, UISO); assay: qHTS cell viability, all six MCC cell lines as a group (mean AUC, MCC.avg); type: cell-based, human
MKL-1 cells (VP-MCC) = assay: qHTS cell viability (CellTiter-Glo, 72 h; primary and follow-up small molecule screen); type: cell-based, human
WAGA cells (VP-MCC) = assay: as above; type: cell-based, human
CRL-7250 cells = assay: qHTS cell viability (CellTiter-Glo, 72 h; primary screen), control cell line; type: cell-based
[5] = test system: control cell lines (HACAT, HEK293T, CRL-7250, NIH-3T3); assay: qHTS cell viability, control cell lines as a group (mean AUC, Control.avg); type: cell-based
MCC13 cells (VN-MCC) = assay: qHTS cell viability (CellTiter-Glo, 72 h; primary and follow-up small molecule screen); type: cell-based, human
HACAT cells = assay: qHTS cell viability (CellTiter-Glo, 72 h; primary screen), control cell line; type: cell-based, human
MKL-2 cells (VP-MCC) = assay: qHTS cell viability (CellTiter-Glo, 72 h; primary and follow-up small molecule screen); type: cell-based, human
MCC26 cells (VN-MCC) = assay: as above; type: cell-based, human
[6] = MIPE library, Control AUC minus VN-MCC AUC (therapeutic window), sheet S2E
[7] = MIPE library, mean AUC of VN-MCC cell lines, sheet S2E
[8] = MIPE library, 11-point DRC, sheet S2E
[9] = MIPE library, Control AUC minus VP-MCC AUC (therapeutic window), sheet S2E
[10] = MIPE library, mean AUC of VP-MCC cell lines, sheet S2E
[11] = MIPE library, 11-point DRC, control cell line, sheet S2E
[12] = MIPE library, Control AUC minus MCC AUC (therapeutic window), sheet S2E
[13] = MIPE library, mean AUC of six MCC cell lines, sheet S2E
[14] = MIPE library, mean AUC of control cell lines, sheet S2E

CN[C@@H]1[C@H](O)[C@H](NC)[C@H]2O[C@@]3(O)C(=O)C[C@@H](C)O[C@H]3O[C@@H]2[C@H]1O.Cl.Cl [Spectinomycin dihydrochloride]
Control-VN-MCC [1, 6]: 27.501
VN-MCC_Avg_AUC [1, 7]: 445.075
UISO_AUC (UISO cells (VN-MCC); [8]): 392.644
UISO_AUC (UISO cells (VN-MCC); area under the dose-response curve, UISO cells, AUC<450 = reduced viability): 477.843
Control-VP-MCC [2, 9]: 192.409
VP-MCC_Avg_AUC [2, 10]: 280.167
HEK293T_AUC (HEK293T cells; [11]): 472.116
HEK293T_AUC (HEK293T cells; area under the dose-response curve, HEK293T control cells, AUC<450 = reduced viability): 456.43
Control-MCC [3, 12]: 109.955
NIH3T3_AUC (NIH-3T3 cells; [11]): 480.157
NIH3T3_AUC (NIH-3T3 cells; area under the dose-response curve, NIH3T3 control cells, AUC<450 = reduced viability): 486.283
MCC_Avg_AUC [4, 13]: 362.621
MKL1_AUC (MKL-1 cells (VP-MCC); [8]): 242.204
MKL1_AUC (MKL-1 cells (VP-MCC); area under the dose-response curve, MKL-1 cells, AUC<450 = reduced viability): 379.185
WAGA_AUC (WAGA cells (VP-MCC); [8]): 274.54
WAGA_AUC (WAGA cells (VP-MCC); area under the dose-response curve, WAGA cells, AUC<450 = reduced viability): 400.83
CRL7250_AUC (CRL-7250 cells; [11]): 477.882
CRL7250_AUC (CRL-7250 cells; area under the dose-response curve, CRL7250 control cells, AUC<450 = reduced viability): 453.169
Control_Avg_AUC [5, 14]: 472.576
MCC13_AUC (MCC13 cells (VN-MCC); [8]): 461.506
MCC13_AUC (MCC13 cells (VN-MCC); area under the dose-response curve, MCC13 cells, AUC<450 = reduced viability): 467.588
HACAT_AUC (HACAT cells; [11]): 460.149
HACAT_AUC (HACAT cells; area under the dose-response curve, HACAT control cells, AUC<450 = reduced viability): 475.545
MKL2_AUC (MKL-2 cells (VP-MCC); [8]): 323.757
MKL2_AUC (MKL-2 cells (VP-MCC); area under the dose-response curve, MKL-2 cells, AUC<450 = reduced viability): 429.069
MCC26_AUC (MCC26 cells (VN-MCC); [8]): 481.076
MCC26_AUC (MCC26 cells (VN-MCC); area under the dose-response curve, MCC26 cells, AUC<450 = reduced viability): 511.183

CC[N+](CC)(CC)CCOc1ccc(/C=C/c2ccccc2)cc1 [Stilonium iodide]
Control-VN-MCC [1]: -18.2672
VN-MCC_Avg_AUC [1]: 401.249
UISO_AUC (UISO cells (VN-MCC)): 334.732
Control-VP-MCC [2]: 60.3449
VP-MCC_Avg_AUC [2]: 322.637
HEK293T_AUC (HEK293T cells): 375.842
Control-MCC [3]: 21.0388
NIH3T3_AUC (NIH-3T3 cells): 427.937
MCC_Avg_AUC [4]: 361.943
MKL1_AUC (MKL-1 cells (VP-MCC)): 307.411
WAGA_AUC (WAGA cells (VP-MCC)): 348.194
CRL7250_AUC (CRL-7250 cells): 355.764
Control_Avg_AUC [5]: 382.981
MCC13_AUC (MCC13 cells (VN-MCC)): 466.903
HACAT_AUC (HACAT cells): 372.384
MKL2_AUC (MKL-2 cells (VP-MCC)): 312.305
MCC26_AUC (MCC26 cells (VN-MCC)): 402.111

O=C(CCCCCCC(=O)Nc1ccccc1)NO [Suberoylanilide hydroxamic acid]
Control-VN-MCC [1, 6]: -12.0249
VN-MCC_Avg_AUC [1, 7]: 436.558
UISO_AUC (UISO cells (VN-MCC); [8]): 422.155
Control-VP-MCC [2, 9]: 69.1958
VP-MCC_Avg_AUC [2, 10]: 355.337
HEK293T_AUC (HEK293T cells; [11]): 400.579
Control-MCC [3, 12]: 28.5854
NIH3T3_AUC (NIH-3T3 cells; [11]): 416.277
MCC_Avg_AUC [4, 13]: 395.947
MKL1_AUC (MKL-1 cells (VP-MCC); [8]): 374.242
WAGA_AUC (WAGA cells (VP-MCC); [8]): 347.247
CRL7250_AUC (CRL-7250 cells; [11]): 429.882
Control_Avg_AUC [5, 14]: 424.533
MCC13_AUC (MCC13 cells (VN-MCC); [8]): 429.995
HACAT_AUC (HACAT cells; [11]): 451.394
MKL2_AUC (MKL-2 cells (VP-MCC); [8]): 344.522
MCC26_AUC (MCC26 cells (VN-MCC); [8]): 457.523

[H]/N=C(/NCCCCC)N/N=C/c1c[nH]c2ccc(OC)cc12 [Tegaserod]
VN-MCC_Avg_AUC ([1]; NPC library, mean AUC of VN-MCC cell lines): 434.493
Control-VN-MCC ([1]; NPC library, therapeutic window: Control avg AUC minus VN-MCC avg AUC): -14.2555
UISO_AUC (UISO cells (VN-MCC); NPC library, qHTS dose-response AUC, UISO): 401.587
VP-MCC_Avg_AUC ([2]; NPC library, mean AUC of VP-MCC cell lines): 263.329
Control-VP-MCC ([2]; NPC library, therapeutic window: Control avg AUC minus VP-MCC avg AUC): 156.909
HEK293T_AUC (HEK293T cells; NPC library, qHTS dose-response AUC, HEK293T control): 405.853
Control-MCC ([3]; NPC library, therapeutic window: Control avg AUC minus MCC avg AUC): 71.3268
NIH3T3_AUC (NIH-3T3 cells; NPC library, qHTS dose-response AUC, NIH3T3 control): 444.55
MCC_Avg_AUC ([4]; NPC library, mean AUC of six MCC cell lines): 348.911
MKL1_AUC (MKL-1 cells (VP-MCC); NPC library, qHTS dose-response AUC, MKL1): 250.061
WAGA_AUC (WAGA cells (VP-MCC); NPC library, qHTS dose-response AUC, WAGA): 279.713
CRL7250_AUC (CRL-7250 cells; NPC library, qHTS dose-response AUC, CRL7250 control): 432.653
Control_Avg_AUC ([5]; NPC library, mean AUC of control cell lines): 420.238
MCC13_AUC (MCC13 cells (VN-MCC); NPC library, qHTS dose-response AUC, MCC13): 473.827
HACAT_AUC (HACAT cells; NPC library, qHTS dose-response AUC, HACAT control): 397.896
MKL2_AUC (MKL-2 cells (VP-MCC); NPC library, qHTS dose-response AUC, MKL2): 260.213
MCC26_AUC (MCC26 cells (VN-MCC); NPC library, qHTS dose-response AUC, MCC26): 428.067
